Where two headings read alike, the source gives them in different places.
Tests used:
recombinant PfPP1 = recombinant PfPP1 (Plasmodium falciparum, UniProt Q8ILV1); experiment: biochemical; format: biochemical
PP2A = conditions: read-out: characteristic IC50; cited from earlier work
PP2B = conditions: cited from earlier work
PP1 = conditions: cited from earlier work
other phosphatases = conditions: cited from earlier work
[1] = read-out: IC50 for inhibition of PfPP1

Q: With `[F-].[Na+]` [NaF] as the compound, how does the IC50 (recombinant PfPP1; read-out: IC50 for inhibition of PfPP1, recombinant PfPP1, data not shown) read?
A: Its IC50 is 2500 µM.

Q: For `C=C1[C@@H](O)[C@@H]2O[C@]3(CC[C@H](/C=C/[C@@H](C)[C@@H]4CC(C)=C[C@@]5(O[C@H](C[C@@](C)(O)C(=O)O)CC[C@H]5O)O4)O3)CC[C@H]2O[C@@H]1[C@@H](O)C[C@H](C)[C@H]1O[C@@]2(CCCCO2)CC[C@H]1C` [OA, okadaic acid], which IC50 (PP2A) is on record?
A: Its IC50 is 0.001 to 0.005 µM.

Q: And the IC50 (recombinant PfPP1)?
A: The IC50 was 0.1 µM.

Q: And the “sensitivity of PP2B to toxin” value (PP2B)?
A: The value was “highly resistant”.

Q: And the IC50 (PP1; read-out: characteristic IC50)?
A: The IC50 was 0.02 to 0.08 µM.

Q: Which IC50 (recombinant PfPP1; [1]) does the source give for `O=P(O)(O)O` [inorganic orthophosphate] here?
A: The IC50 was 10000 µM.

Q: For `O=P(O)(O)OP(=O)(O)O` [pyrophosphate], which IC50 (recombinant PfPP1; [1]) is on record?
A: Its IC50 is 90 µM.

Q: For `CO[C@H]([C@H](O)CC(=O)[C@@H](C)[C@@H](O)CC[C@@H](C)[C@@H]1O[C@]2(CC[C@@H](C)[C@H](CC[C@H](C)C(C)=O)O2)CC[C@@H]1C)[C@H](OC(=O)C[C@@H](O)C1=C(C)C(=O)OC1=O)C(C)C` [tautomycin], which IC50 (recombinant PfPP1) is on record?
A: The IC50 was 0.0008 µM.

Q: And the “inhibition of other phosphatases” value (other phosphatases)?
A: The value was “fails to inhibit”.

Q: What about the “effect on PP1 versus PP2A” value (PP1; PP1 and PP2A compared) of the same compound?
A: The value was “nearly equally”.
